Assay results taken from the supplement of paper PMC5412046.
Structures can show the parent of a compound that is named as a salt.

tested on: SB.mhdgc-1; test: viability at highest tested concentration (MAXR) relative to DMSO; higher = less cytotoxic; conditions: SB.mhdgc-1 (hereditary c.1380delA CDH1 gastric cancer)
Method in brief: (§1)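 A pintool delivered 23 nL of compound in DMSO to 1536-well plates holding 500 hereditary or sporadic patient-derived gastric cancer cells in 5 μL medium per well, at 11 concentrations in threefold steps. Following 48 h of exposure, cells were treated with CellTiter-Glo for 30 min at room temperature, and plates were read for luminescence on a ViewLux. The reported measure is viability normalised to DMSO, either at the top concentration or as trapezoidal area under the curve.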

In order of rising viability:
1. CCN1CCN(C(=O)Cc2ccc(Nc3ncc(F)c(Nc4ccc(C(=O)Nc5ccccc5Cl)cc4)n3)cc2)CC1 [Aurora A Inhibitor I] (top concentration 46.0829 µM)  0.759%
2. CN(C)c1ccc2nc3ccc(N(C)C)cc3[s+]c2c1 [Methylene blue] (top concentration 46.0829 µM)  4.3%
3. CCC(C)SSc1ncc[nH]1 (configuration not stated) [PX-12] (top concentration 46.0829 µM)  5.12%
4. ClC1=CC=C(C=C1)C(C#N)C2=C(Cl)C=C(C=C2Cl)N3\N=C/C(=O)NC3=O (configuration not stated) [Diclazuril] (top concentration 46.0829 µM)  8.68%
5. CCC(CCCC)COC(=O)C(\C#N)=C(\c1ccccc1)c2ccccc2 (configuration not stated) [Octocrylene] (top concentration 46.0829 µM)  9.42%
6. CNC(=O)c1cc(Oc2ccc(NC(=O)Nc3ccc(Cl)c(C(F)(F)F)c3)cc2)ccn1 [Sorafenib] (top concentration 46.0829 µM)  9.42%
7. CN1CCCC(CC1)N2\N=C(CC3=CC=C(Cl)C=C3)/C4=C(C=CC=C4)C2=O (configuration not stated) [Azelastine hydrochloride] (top concentration 46.0829 µM)  9.68%
8. COc1ccc2[nH]c([S+]([O-])Cc3ncc(C)c(OC)c3C)nc2c1 (configuration not stated) [Omeprazole] (top concentration 46.0829 µM)  20%
9. Cc1c(NC(=O)OC[C@@H]2COCCN2)cn2ncnc(Nc3ccc4c(cnn4Cc4cccc(F)c4)c3)c12 [AC-480] (top concentration 46.0829 µM)  21.2%
10. O=C1[O][Pt]2([NH]C3CCCCC3[NH]2)[O]C1=O (configuration not stated) [Oxaliplatin] (top concentration 46.0829 µM)  21.6%
11. NC/1=N/C(=O)N(/C=N1)[C@@H]2O[C@H](CO)[C@@H](O)[C@H]2O [5-Azacitidine] (top concentration 46.0829 µM)  31.6%
12. C#Cc1cccc(Nc2ncnc3cc(OCCOC)c(OCCOC)cc23)c1 [Erlotinib hydrochloride] (top concentration 46.0829 µM)  33.1%
13. CC1=C(CC(=O)O)c2cc(F)ccc2/C1=C\c1ccc([S+](C)[O-])cc1 (configuration not stated) [Sulindac] (top concentration 46.0829 µM)  35.4%
14. OC(CN1CCC(Cc2ccc(F)cc2)CC1)c1ccc(Cl)cc1 (configuration not stated) [Eliprodil] (top concentration 46.0829 µM)  37.7%
15. OCCC#Cc1nc(-c2ccc(F)cc2)c(-c2ccncc2)n1CCCc1ccccc1 (top concentration 46.0829 µM)  38.9%
16. Cc1cc(Nc2ncc3c(n2)N(C)C(=O)N(c2cc(NC(=O)c4cccc(C(F)(F)F)c4)ccc2C)C3)n(C)n1 [Pluripotin] (top concentration 46.0829 µM)  40.4%
17. O=C(Nc1cccnc1)N1CCC(Cc2cccc(Oc3ccc(C(F)(F)F)cn3)c2)CC1 [PF-3845] (top concentration 46.0829 µM)  43%
18. CCCC(CCC)C(=O)[O-] [Valproic acid sodium salt] (top concentration 46.0829 µM)  47.7%
19. COc1ccc2c(c1)CC[C@@H](CN(C)CC(=O)O)[C@H]2c1ccccc1 (top concentration 46.0829 µM)  55.3%
20. c1ccc2c(Oc3nc(Nc4ccc(N5CCOCC5)cc4)c4ncn(C5CCCCC5)c4n3)cccc2c1 [purmorphamine] (top concentration 46.0829 µM)  58%
21. C[C@]12CCC(=O)C=C1CC[C@@H]1[C@@H]2CC[C@@]2(C)[C@H]1CC[C@]2(C)O [Methyltestosterone] (top concentration 92.1659 µM)  73.4%
22. C1COC(NC(C2CC2)C2CC2)=N1 [Rilmenidine] (top concentration 46.0829 µM)  75.5%
23. COC(=O)[C@H](c1ccccc1Cl)N1CCc2sccc2C1 [Clopidogrel bisulfate] (top concentration 46.0829 µM)  82%
24. Cc1nc(C(=O)NCC(=O)O)c(O)c2ccc(Oc3ccccc3)cc12 [FG-4592] (top concentration 46.0829 µM)  86.4%
25. NC(=O)[C@@H](CCC(F)(F)F)N(Cc1ccc(-c2ncon2)cc1F)[S+](=O)([O-])c1ccc(Cl)cc1 [Avagacestat] (top concentration 46.0829 µM)  91.5%
26. N#Cc1c(N(CC(=O)[O-])CC(=O)[O-])sc(C(=O)[O-])c1CC(=O)[O-].O.O.O.O.O.O.O.[Sr+2].[Sr+2] [Ranelic acid distrontium salt] (top concentration 46.0829 µM)  92.2%
27. OC(=O)\C1=C\N(C2=CC=C(F)C=C2)C3=C(C=C(F)C(=C3)N4CCNCC4)C1=O [Sarafloxacin hydrochloride] (top concentration 46.0829 µM)  95.3%
28. O=C(/C=C/c1ccc(O)cc1)c1ccc(O)cc1O [Isoliquiritigenin] (top concentration 46.0829 µM)  100%
29. C[C@H](NC(=O)C(=O)Nc1ccccc1C(C)(C)C)C(=O)N[C@@H](CC(=O)O)C(=O)COc1c(F)c(F)cc(F)c1F [Emricasan] (top concentration 46.0829 µM)  105%
30. CCc1ccc(CCOc2ccc(CC3SC(=O)NC3=O)cc2)nc1 (configuration not stated) [Pioglitazone HCl] (top concentration 46.0829 µM)  112%
31. NC1CCC(Nc2nc(Nc3ccc(C(=O)N4CCCCC4)cc3)c3ncn(-c4cccc(F)c4)c3n2)CC1 (configuration not stated) [Purfalcamine] (top concentration 46.0829 µM)  122%
32. CNCC(O)c1ccc(O)cc1 (configuration not stated) [Synephrine] (top concentration 46.0829 µM)  122%
33. CCN1\C=C(C(O)=O)/C(=O)C2=C1C(=C(N3CCNC(C)C3)C(=C2)F)F (configuration not stated) [Lomefloxacin hydrochloride] (top concentration 46.0829 µM)  124%
34. O=C(/C=C/c1c(C(=O)[O-])[nH]c2cc(Cl)cc(Cl)c12)Nc1ccccc1 [Gavestinel sodium] (top concentration 46.0829 µM)  125%
35. CC1(C)CC(O)CC(C)(C)N1[O] [Tempol] (top concentration 46.0829 µM)  133%
36. c1coc(CNc2ncnc3nc[nH]c23)c1 [Kinetin] (top concentration 46.0829 µM)  137%

tested on: SB.msgc-1; test: as above; conditions: SB.msgc-1 (sporadic gastric cancer)
Method in brief: as §1

In order of rising viability:
1. CCN1CCN(C(=O)Cc2ccc(Nc3ncc(F)c(Nc4ccc(C(=O)Nc5ccccc5Cl)cc4)n3)cc2)CC1 [Aurora A Inhibitor I] (top concentration 46.0829 µM)  2.06%
2. CCC(C)SSc1ncc[nH]1 (configuration not stated) [PX-12] (top concentration 46.0829 µM)  4.17%
3. CN1CCCC(CC1)N2\N=C(CC3=CC=C(Cl)C=C3)/C4=C(C=CC=C4)C2=O (configuration not stated) [Azelastine hydrochloride] (top concentration 46.0829 µM)  6.54%
4. CN(C)c1ccc2nc3ccc(N(C)C)cc3[s+]c2c1 [Methylene blue] (top concentration 46.0829 µM)  9.08%
5. Cc1c(NC(=O)OC[C@@H]2COCCN2)cn2ncnc(Nc3ccc4c(cnn4Cc4cccc(F)c4)c3)c12 [AC-480] (top concentration 46.0829 µM)  18.6%
6. NC/1=N/C(=O)N(/C=N1)[C@@H]2O[C@H](CO)[C@@H](O)[C@H]2O [5-Azacitidine] (top concentration 46.0829 µM)  19.9%
7. C#Cc1cccc(Nc2ncnc3cc(OCCOC)c(OCCOC)cc23)c1 [Erlotinib hydrochloride] (top concentration 46.0829 µM)  22.1%
8. CNC(=O)c1cc(Oc2ccc(NC(=O)Nc3ccc(Cl)c(C(F)(F)F)c3)cc2)ccn1 [Sorafenib] (top concentration 46.0829 µM)  26.6%
9. COc1ccc2[nH]c([S+]([O-])Cc3ncc(C)c(OC)c3C)nc2c1 (configuration not stated) [Omeprazole] (top concentration 46.0829 µM)  33.7%
10. COc1ccc2c(c1)CC[C@@H](CN(C)CC(=O)O)[C@H]2c1ccccc1 (top concentration 46.0829 µM)  33.9%
11. CCC(CCCC)COC(=O)C(\C#N)=C(\c1ccccc1)c2ccccc2 (configuration not stated) [Octocrylene] (top concentration 46.0829 µM)  34.9%
12. O=C(Nc1cccnc1)N1CCC(Cc2cccc(Oc3ccc(C(F)(F)F)cn3)c2)CC1 [PF-3845] (top concentration 46.0829 µM)  44.9%
13. Cc1cc(Nc2ncc3c(n2)N(C)C(=O)N(c2cc(NC(=O)c4cccc(C(F)(F)F)c4)ccc2C)C3)n(C)n1 [Pluripotin] (top concentration 46.0829 µM)  45.8%
14. CCCC(CCC)C(=O)[O-] [Valproic acid sodium salt] (top concentration 46.0829 µM)  46.3%
15. CC1=C(CC(=O)O)c2cc(F)ccc2/C1=C\c1ccc([S+](C)[O-])cc1 (configuration not stated) [Sulindac] (top concentration 46.0829 µM)  46.5%
16. OCCC#Cc1nc(-c2ccc(F)cc2)c(-c2ccncc2)n1CCCc1ccccc1 (top concentration 46.0829 µM)  51.1%
17. O=C1[O][Pt]2([NH]C3CCCCC3[NH]2)[O]C1=O (configuration not stated) [Oxaliplatin] (top concentration 46.0829 µM)  57.1%
18. c1ccc2c(Oc3nc(Nc4ccc(N5CCOCC5)cc4)c4ncn(C5CCCCC5)c4n3)cccc2c1 [purmorphamine] (top concentration 46.0829 µM)  58.9%
19. C[C@]12CCC(=O)C=C1CC[C@@H]1[C@@H]2CC[C@@]2(C)[C@H]1CC[C@]2(C)O [Methyltestosterone] (top concentration 92.1659 µM)  60.4%
20. ClC1=CC=C(C=C1)C(C#N)C2=C(Cl)C=C(C=C2Cl)N3\N=C/C(=O)NC3=O (configuration not stated) [Diclazuril] (top concentration 46.0829 µM)  61%
21. O=C(/C=C/c1ccc(O)cc1)c1ccc(O)cc1O [Isoliquiritigenin] (top concentration 46.0829 µM)  67.1%
22. NC(=O)[C@@H](CCC(F)(F)F)N(Cc1ccc(-c2ncon2)cc1F)[S+](=O)([O-])c1ccc(Cl)cc1 [Avagacestat] (top concentration 46.0829 µM)  68.8%
23. OC(CN1CCC(Cc2ccc(F)cc2)CC1)c1ccc(Cl)cc1 (configuration not stated) [Eliprodil] (top concentration 46.0829 µM)  81.8%
24. C[C@H](NC(=O)C(=O)Nc1ccccc1C(C)(C)C)C(=O)N[C@@H](CC(=O)O)C(=O)COc1c(F)c(F)cc(F)c1F [Emricasan] (top concentration 46.0829 µM)  84.6%
25. O=C(/C=C/c1c(C(=O)[O-])[nH]c2cc(Cl)cc(Cl)c12)Nc1ccccc1 [Gavestinel sodium] (top concentration 46.0829 µM)  89.8%
26. c1coc(CNc2ncnc3nc[nH]c23)c1 [Kinetin] (top concentration 46.0829 µM)  91.3%
27. CCc1ccc(CCOc2ccc(CC3SC(=O)NC3=O)cc2)nc1 (configuration not stated) [Pioglitazone HCl] (top concentration 46.0829 µM)  91.4%
28. NC1CCC(Nc2nc(Nc3ccc(C(=O)N4CCCCC4)cc3)c3ncn(-c4cccc(F)c4)c3n2)CC1 (configuration not stated) [Purfalcamine] (top concentration 46.0829 µM)  92.6%
29. N#Cc1c(N(CC(=O)[O-])CC(=O)[O-])sc(C(=O)[O-])c1CC(=O)[O-].O.O.O.O.O.O.O.[Sr+2].[Sr+2] [Ranelic acid distrontium salt] (top concentration 46.0829 µM)  94.8%
30. Cc1nc(C(=O)NCC(=O)O)c(O)c2ccc(Oc3ccccc3)cc12 [FG-4592] (top concentration 46.0829 µM)  98.3%
31. CCN1\C=C(C(O)=O)/C(=O)C2=C1C(=C(N3CCNC(C)C3)C(=C2)F)F (configuration not stated) [Lomefloxacin hydrochloride] (top concentration 46.0829 µM)  101%
32. OC(=O)\C1=C\N(C2=CC=C(F)C=C2)C3=C(C=C(F)C(=C3)N4CCNCC4)C1=O [Sarafloxacin hydrochloride] (top concentration 46.0829 µM)  102%
33. COC(=O)[C@H](c1ccccc1Cl)N1CCc2sccc2C1 [Clopidogrel bisulfate] (top concentration 46.0829 µM)  103%
34. C1COC(NC(C2CC2)C2CC2)=N1 [Rilmenidine] (top concentration 46.0829 µM)  109%
35. CC1(C)CC(O)CC(C)(C)N1[O] [Tempol] (top concentration 46.0829 µM)  110%
36. CNCC(O)c1ccc(O)cc1 (configuration not stated) [Synephrine] (top concentration 46.0829 µM)  110%
